Measurements taken from patent US20090306218A1, “Antimicrobial formulations” (priority 2006, published 2009).
Where two headings read alike, the source gives them in different places.

What was measured:
[1] = system: Propionibacterium acnes NCTC 737; assay: Minimum bactericidal concentration (MBC) assay; assay type: cell-based; conditions: P. acnes NCTC 737
Procedure: (b) Minimum Bactericidal Concentration (MBC) Assay
(§1) MIC, MBC and DDA assays, as described above, were carried out using the test compound t-butyl-p-hydroquinone (TBHQ) and a range of bismuth salts (all ex-Sigma Aldrich, UK).

[2] = system: Propionibacterium acnes NCTC 737; assay: Disc diffusion assay (DDA); assay type: cell-based; conditions: for DDA (zone of inhibition diameter): P. acnes NCTC 737; for zone of inhibition at 200 µg/disc: Cutibacterium acnes, NCTC737, read-out: DDA (zone of inhibition diameter)
Procedure: (d) Disc Diffusion Assay (DDA)
This is an internationally recognised standard method for qualitatively assessing the antimicrobial activity of a compound.
A sterile paper disc was impregnated with a sample of the test compound in a suitable solvent and 30 minutes allowed for the solvents to evaporate (where possible). The disc was then placed on an agar plate onto which the test micro-organism had been inoculated. The plate was then incubated under the conditions described above, following which it was examined visually for signs of microbial growth. […] The diameter of this zone of “inhibition” was measured using a ProtoCOL™ automated zone sizer (Synbiosis, Cambridge, UK).
(§2) The TBHQ was dissolved in ethanol and the bismuth salts in DMSO.
(§3) All the (S)DDA experiments were conducted in triplicate.
(§4) DDA assays, as described above, were carried out using each of the test compounds individually. The quinone/bismuth salt combinations were then subjected to the SDDA assay described above.
(§5) The quinones and bismuth salts were all dissolved in DMSO.

[3] = system: Propionibacterium acnes NCTC 737; assay: Minimum inhibitory concentration (MIC) assay, liquid medium; assay type: cell-based; conditions: P. acnes NCTC 737
Procedure: (a) Minimum Inhibitory Concentration (MIC) Assay
This is a standard international method for quantitatively assessing the antimicrobial activity of a compound in a liquid medium. The method used a sterile 96-well microtitre plate, capable of holding about 200 μl of liquid per well. […] The culture medium was as described above.
After incubation, the microtitre plate was examined visually (with the aid of a light box) for cloudiness in each well, which would indicate microbial growth. The MIC value was recorded as the lowest concentration of test compound required to inhibit microbial growth, i.e., the lowest concentration for which the liquid in the well remained clear.
The assays were conducted in duplicate (minimum) and included both negative (culture medium with no micro-organisms) and positive (culture medium plus diluting solvent plus micro-organism) controls.
as §1

[4] = system: Propionibacterium acnes NCTC 737; assay: Synergy disc diffusion assay (SDDA); assay type: cell-based; conditions: P. acnes NCTC 737; for SDDA with TBHQ (zone diameter): bismuth salt together with TBHQ, 200 μg of each per disc; for SDDA increase: combination with TBHQ vs the single compound with the larger zone; for SDDA area increase: combination with TBHQ
Procedure: (e) Synergy Disc Diffusion Assay (SDDA)
Each bismuth salt was then subjected, together with the TBHQ, to the SDDA assay described above.
as §2, §3, §4, §5

[5] = system: P. acnes PRP panel strains; assay type: cell-based, Propionibacterium acnes
[6] = system: P. granulosum panel strains; assay: Agar dilution MIC assay, panel of propionibacteria; assay type: cell-based, Propionibacterium granulosum
[7] = 200 μg per disc (2-t-butyl-p-benzoquinone 100 μg per disc), in DMSO, Table 5
[8] = P. acnes PRP-002, resistance phenotype Tet/MLS
[9] = P. acnes PRP-003, resistance phenotype Tet
[10] = P. acnes PRP-004, resistance phenotype Tet
[11] = P. acnes PRP-007, resistance phenotype Clin
[12] = P. acnes PRP-008, resistance phenotype Clin
[13] = P. acnes PRP-010, resistance phenotype MLSK
[14] = P. acnes PRP-017, resistance phenotype MLS
[15] = P. acnes PRP-023, resistance phenotype MLSK
[16] = P. acnes PRP-026, resistance phenotype MLS
[17] = P. acnes PRP-039, resistance phenotype Tet/MLS
[18] = P. acnes PRP-046, resistance phenotype None
[19] = P. acnes PRP-053, resistance phenotype Tet/MLS
[20] = P. acnes PRP-059, resistance phenotype MLS
[21] = P. acnes PRP-068, resistance phenotype Ery
[22] = P. acnes PRP-101, resistance phenotype Tet/MLS
[23] = P. acnes PRP-102, resistance phenotype Tet/MLS
[24] = P. granulosum NCTC 11865, resistance phenotype None
[25] = P. granulosum PRP-005, resistance phenotype MLSK
[26] = P. granulosum PRP-006, resistance phenotype MLS
[27] = P. granulosum PRP-019, resistance phenotype MLSK
[28] = P. granulosum PRP-021, resistance phenotype MLS
[29] = P. granulosum PRP-043, resistance phenotype MLS
[30] = P. granulosum PRP-044, resistance phenotype MLS
[31] = P. granulosum PRP-055, resistance phenotype None

Structure (SMILES): [Cl][Bi]([Cl])[Cl] [Bismuth chloride]
- MBC ([1]; Table 1): 3.9 µg/mL
- MIC/MBC ratio ([1]; Table 1): 0.125
- DDA (zone of inhibition diameter) ([2]; 200 μg per disc, Table 2): 26.07 mm
- MIC ([3]; Table 1): 0.49 µg/mL
- SDDA with TBHQ (zone diameter) ([4]; Table 2): 31.64 mm
- SDDA increase ([4]; Table 2): 5.57 mm
- SDDA area increase ([4]; Table 2): 47.29%

Structure (SMILES): CC(C)(C)C1=CC(=O)C=CC1=O [2-t-butyl-p-benzoquinone]
- DDA (zone of inhibition diameter) [2, 7]: 52.61 mm

Structure (SMILES): CC(=O)[O-].CC(=O)[O-].CC(=O)[O-].[Bi+3] [Bismuth acetate]
- MBC ([1]; Table 1): 7.8 µg/mL
- MIC/MBC ratio ([1]; Table 1): 0.125
- DDA (zone of inhibition diameter) ([2]; 200 μg per disc, Table 2): 28.17 mm
- MIC ([3]; Table 1): 0.98 µg/mL
- SDDA with TBHQ (zone diameter) ([4]; Table 2): 34.89 mm
- SDDA increase ([4]; Table 2): 6.72 mm
- SDDA area increase ([4]; Table 2): 53.4%

Structure (SMILES): O=[N+]([O-])[O-].O=[N+]([O-])[O-].O=[N+]([O-])[O-].O=[N+]([O-])[O-].[Bi+3].[Bi+3].[Bi+3].[Bi+3].[Bi+3].[O-2].[OH-].[OH-].[OH-].[OH-].[OH-].[OH-].[OH-].[OH-].[OH-] [Bismuth subnitrate]
- MBC ([1]; separate experiment, Table 3): 7.8 µg/mL
- MIC/MBC ratio ([1]; separate experiment, Table 3): 0.5
- DDA (zone of inhibition diameter) [2, 7]: 24.91 mm
- DDA (zone of inhibition diameter) ([2]; 200 μg per disc, separate experiment, Table 4): 24.91 mm
- MIC (agar dilution) [5, 8]: 7.8 µg/mL
- MIC (agar dilution) [5, 9]: 7.8 µg/mL
- MIC (agar dilution) [5, 10]: 7.8 µg/mL
- MIC (agar dilution) [5, 11]: 7.8 µg/mL
- MIC (agar dilution) [5, 12]: 7.8 µg/mL
- MIC (agar dilution) [5, 13]: 7.8 µg/mL
- MIC (agar dilution) [5, 14]: 7.8 µg/mL
- MIC (agar dilution) [5, 15]: 7.8 µg/mL
- MIC (agar dilution) [5, 16]: 7.8 µg/mL
- MIC (agar dilution) [5, 17]: 7.8 µg/mL
- MIC (agar dilution) [5, 18]: 7.8 µg/mL
- MIC (agar dilution) [5, 19]: 7.8 µg/mL
- MIC (agar dilution) [5, 20]: 7.8 µg/mL
- MIC (agar dilution) [5, 21]: 7.8 µg/mL
- MIC (agar dilution) [5, 22]: 7.8 µg/mL
- MIC (agar dilution) [5, 23]: 7.8 µg/mL
- MIC ([3]; separate experiment, Table 3): 3.9 µg/mL
- SDDA with TBHQ (zone diameter) ([4]; Table 4): 30.39 mm
- SDDA increase ([4]; Table 4): 5.48 mm
- SDDA area increase ([4]; Table 4): 48.84%
- MIC (agar dilution) [6, 24]: 7.8 µg/mL
- MIC (agar dilution) [6, 25]: 7.8 µg/mL
- MIC (agar dilution) [6, 26]: 7.8 µg/mL
- MIC (agar dilution) [6, 27]: 7.8 µg/mL
- MIC (agar dilution) [6, 28]: 7.8 µg/mL
- MIC (agar dilution) [6, 29]: 7.8 µg/mL
- MIC (agar dilution) [6, 30]: 7.8 µg/mL
- MIC (agar dilution) [6, 31]: 7.8 µg/mL

Structure (SMILES): O=C([O-])CC(O)(CC(=O)[O-])C(=O)[O-].[Bi+3] [Bismuth citrate]
- MBC ([1]; Table 1): 7.8 µg/mL
- MIC/MBC ratio ([1]; Table 1): 0.125
- DDA (zone of inhibition diameter) [2, 7]: 32.97 mm
- DDA (zone of inhibition diameter) ([2]; 200 μg per disc, Table 2): 34.47 mm
- MIC (agar dilution) [5, 8]: 7.8 µg/mL
- MIC (agar dilution) [5, 9]: 3.9 µg/mL
- MIC (agar dilution) [5, 10]: 7.8 µg/mL
- MIC (agar dilution) [5, 11]: 3.9 µg/mL
- MIC (agar dilution) [5, 12]: 3.9 µg/mL
- MIC (agar dilution) [5, 13]: 7.8 µg/mL
- MIC (agar dilution) [5, 14]: 3.9 µg/mL
- MIC (agar dilution) [5, 15]: 3.9 µg/mL
- MIC (agar dilution) [5, 16]: 3.9 µg/mL
- MIC (agar dilution) [5, 17]: 0.98 µg/mL
- MIC (agar dilution) [5, 18]: 3.9 µg/mL
- MIC (agar dilution) [5, 19]: 3.9 µg/mL
- MIC (agar dilution) [5, 20]: 7.8 µg/mL
- MIC (agar dilution) [5, 21]: 7.8 µg/mL
- MIC (agar dilution) [5, 22]: 7.8 µg/mL
- MIC (agar dilution) [5, 23]: 7.8 µg/mL
- MIC ([3]; Table 1): 0.98 µg/mL
- SDDA with TBHQ (zone diameter) ([4]; Table 2): 43.41 mm
- SDDA increase ([4]; Table 2): 8.94 mm
- SDDA area increase ([4]; Table 2): 58.59%
- MIC (agar dilution) [6, 24]: 7.8 µg/mL
- MIC (agar dilution) [6, 25]: 7.8 µg/mL
- MIC (agar dilution) [6, 26]: 7.8 µg/mL
- MIC (agar dilution) [6, 27]: 7.8 µg/mL
- MIC (agar dilution) [6, 28]: 7.8 µg/mL
- MIC (agar dilution) [6, 29]: 3.9 µg/mL
- MIC (agar dilution) [6, 30]: 7.8 µg/mL
- MIC (agar dilution) [6, 31]: 7.8 µg/mL

Structure (SMILES): O=C1C=CC(=O)C(Cl)=C1 [2-chloro-p-benzoquinone]
- zone of inhibition at 200 µg/disc [2]: 25.4 mm

Structure (SMILES): CC1=CC(=O)C=CC1=O [Methyl-p-benzoquinone]
- zone of inhibition at 200 µg/disc [2]: 39.9 mm
